# Reference: patent US12599604B2, “Application of JAK inhibitor in kidney disease” (JIANGSU HENGRUI PHARMACEUTICALS CO., LTD., priority 2020, dated 2026)
# How the values were obtained:
# [1] = tested on: cisplatin-induced acute kidney injury mouse models; assay: Cisplatin-induced acute kidney disease models (Example 4); format: in vivo; settings: for mortality rate of the mice: day 7 post modeling, same dosage (2.5 mg/kg oral BID per the 4th table), n=10
# Method: After arrival and subsequent 7-day acclimation, the animals were randomly grouped. Except the animals in the control group, all other animals needed to be modeled by intraperitoneal injection with cisplatin. From day −3 to day 0, the mice in each group were administered BID. On the day of modeling (day 0), the animals were intraperitoneally injected with cisplatin (15 mg/kg) post administration in the morning. The dosing was continued until day 7. After the modeling, serum and urine samples were collected from the animals on day 4 and day 7, respectively, to measure the blood creatinine, urea nitrogen, and urinary albumin/creatinine (UACR) levels.
# (§1) The effects of the compounds on the kidney were then evaluated.
# [2] = tested on: LPS-induced acute kidney injury mouse models; assay: Lipopolysaccharide (LPS)-induced acute kidney disease models (Example 3); format: in vivo; settings: FIG. 10
# Method: After arrival and subsequent 7-day acclimation, the animals were randomly grouped. Except the animals in the control group, all other animals needed to be modeled by intraperitoneal injection with LPS. From day −2 to day 0, the mice in each group were administered by gavage, BID. On the day of modeling (day 0), the animals were intraperitoneally injected with LPS (12 mpk) post administration in the morning. Blood samples were collected after 24 h, and creatinine and urea nitrogen levels were measured.
# as §1
# Janus kinase subtype 1 = Janus kinase subtype 1 (Homo sapiens, UniProt P23458); settings: background statement, no data; cited from earlier work
# [3] = tested on: ischemia-reperfusion mouse models; assay: Ischemia-reperfusion models in mice (Examples 1 and 2); format: in vivo
# Method: After arrival and subsequent 7-day acclimation, the animals were randomly grouped. Except the animals in the control group, all other animals needed to be modeled. On day −1, the mice in each group were administered by gavage twice a day (BID). On the day of surgery (day 0), the mice underwent surgery post administration in the morning. On day 1, the dosing was continued, and on day 2, the endpoint treatment was performed. The mice were subjected to blood collection 24 hours and 48 hours post surgery, and for the endpoint treatment, their kidneys were taken and fixed in a formaldehyde solution for subsequent HE pathological detection.
# The specific steps of the ischemia-reperfusion surgery were as follows: the mice were anesthetized with 4% chloral hydrate (10 ml/kg, ip) and secured in a prone position. An incision was made on the back and the right kidney was isolated while ensuring that the adrenal gland and ureter were not injured. The renal artery and renal vein were ligated and the right kidney was excised. The left kidney was isolated, and the renal arterial and venous tracts were carefully separated and clipped for 30 min using a mini bulldog clamp, and then the clamp was loosened. The skin was sutured layer by layer with a needle and thread, and the mice were returned to their cages for recovery.
# as §1
# Sequence of Janus kinase subtype 1 (P23458 whole entry, the tested form may be a part): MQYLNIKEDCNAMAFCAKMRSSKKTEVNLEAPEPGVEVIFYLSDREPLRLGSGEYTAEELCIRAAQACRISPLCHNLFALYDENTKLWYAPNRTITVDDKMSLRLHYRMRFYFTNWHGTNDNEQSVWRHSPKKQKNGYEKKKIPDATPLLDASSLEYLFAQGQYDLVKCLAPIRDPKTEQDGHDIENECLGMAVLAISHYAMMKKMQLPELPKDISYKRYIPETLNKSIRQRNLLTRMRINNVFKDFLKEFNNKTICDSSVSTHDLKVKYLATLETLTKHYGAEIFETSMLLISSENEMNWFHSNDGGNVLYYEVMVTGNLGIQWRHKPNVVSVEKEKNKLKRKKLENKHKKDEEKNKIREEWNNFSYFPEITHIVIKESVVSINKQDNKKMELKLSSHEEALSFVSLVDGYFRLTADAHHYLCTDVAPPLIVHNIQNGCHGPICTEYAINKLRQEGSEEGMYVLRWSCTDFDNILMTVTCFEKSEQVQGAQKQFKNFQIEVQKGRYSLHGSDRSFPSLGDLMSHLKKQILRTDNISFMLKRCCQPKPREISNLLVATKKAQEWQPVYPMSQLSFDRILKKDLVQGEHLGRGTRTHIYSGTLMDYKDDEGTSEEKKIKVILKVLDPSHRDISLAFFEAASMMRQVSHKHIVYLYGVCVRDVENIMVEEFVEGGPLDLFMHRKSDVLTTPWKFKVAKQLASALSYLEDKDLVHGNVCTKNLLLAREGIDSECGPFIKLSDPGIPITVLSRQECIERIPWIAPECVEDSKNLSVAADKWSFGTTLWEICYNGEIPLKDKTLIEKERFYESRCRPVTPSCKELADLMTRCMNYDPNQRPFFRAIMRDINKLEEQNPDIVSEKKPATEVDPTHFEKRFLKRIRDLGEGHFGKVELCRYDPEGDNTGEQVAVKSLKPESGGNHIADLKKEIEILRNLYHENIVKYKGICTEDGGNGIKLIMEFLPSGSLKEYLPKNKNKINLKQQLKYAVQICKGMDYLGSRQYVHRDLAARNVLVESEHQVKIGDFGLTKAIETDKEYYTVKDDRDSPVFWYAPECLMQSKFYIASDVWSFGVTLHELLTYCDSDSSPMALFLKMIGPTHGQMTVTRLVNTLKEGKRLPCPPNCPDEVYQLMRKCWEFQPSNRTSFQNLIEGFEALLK
SMILES,mortality rate of the mice [1],"kidney protective functions, 5 mpk and 10 mpk compared with 2.5 mpk group ([2]; 5 mpk and 10 mpk oral BID)","blood creatinine and urea nitrogen levels induced by LPS ([2]; different dosage groups (2.5, 5, 10 mg/kg oral BID), 24 h after LPS 12 mpk ip)",inhibitory activity against Janus kinase subtype 1 relative to subtype 2 or subtype 3 (selectivity) (Janus kinase subtype 1),"blood creatinine and urinary albumin levels induced by cisplatin ([1]; 1.25, 2.5, 5 mg/kg oral BID, cisplatin 15 mg/kg ip, FIG. 11)","blood creatinine, blood urea nitrogen, urinary albumin/creatinine ratio, significance ([1]; 2.5 mpk and 5 mpk oral BID, FIG. 11)","kidney protective functions compared with compound B ([1]; cisplatin models, FIG. 11)","mortality of the mice ([1]; different dosages (1.25, 2.5, 5 mg/kg oral BID), model group 100% dead on day 6)","kidney/body weight ratio (renal compensatory hypertrophy) ([3]; Example 1, 10 mg/kg oral BID, 48 hours post modeling, FIG. 6)","improvement of kidney/body weight ratio compared with compound B ([3]; Example 1, 10 mg/kg oral BID, FIG. 6)","body weight reduction caused by ischemia-reperfusion ([3]; Example 1, 10 mg/kg oral BID, compared with compound B at the same dosage, FIG. 5)","kidney HE pathological scores ([3]; Example 1, 10 mg/kg oral BID, scores 0-3, FIG. 9)","blood creatinine and urea nitrogen, difference from the model group ([3]; Example 2, 5 mpk and 10 mpk oral BID, FIG. 8)","renal hypertrophy, difference from the model group ([3]; Example 2, 5 mpk oral BID, FIG. 7)","renal hypertrophy caused by ischemia-reperfusion (kidney/body weight ratio) ([3]; Example 2, all dosage groups 2.5 mpk, 5 mpk and 10 mpk oral BID, FIG. 7)","blood creatinine and urea nitrogen levels ([3]; Example 2, all dosage groups 2.5 mpk, 5 mpk and 10 mpk oral BID, FIG. 8)","blood creatinine and urea nitrogen, protective effect compared with compound B ([3]; Example 2, same dosage (5 mg/kg oral BID), FIG. 8)",overall kidney protective effect compared with compound B ([3]; Examples 1 and 2),"overall kidney protective effect (mortality, renal hypertrophy, kidney pathology, blood biochemical parameters) ([3]; Examples 1 and 2, compared with the model group)"
"CCS(=O)(=O)N1CC(CC#N)(n2cc(-c3ncnc4[nH]ccc34)cn2)C1 [Compound B, Baricitinib, reference compound]",80%,–,–,–,–,–,–,–,–,–,–,–,–,–,–,–,–,–,–
"COc1nsc(NC(=O)N2C[C@H]3C[C@H](N(C)c4ncnc5[nH]ccc45)C[C@H]3C2)n1 [Compound A, (3 aR,5 s,6aS)—N-(3-methoxy-1,2,4-thiadiazol-5-yl)-5-(methyl(7H-pyrrolo[2,3-d]pyrimidin-4-yl)amino)hexahydrocyclopenta[c]pyrrole-2(1H)-carb oxamide]",40%,Stronger kidney protective functions,significantly alleviated the increase in blood creatinine and urea nitrogen levels,stronger inhibitory activity against Janus kinase subtype 1 relative to Janus kinase subtype 2 or Janus kinase subtype 3,dose-dependently alleviated the increase in blood creatinine and urinary albumin levels,showed significant differences,exhibited stronger kidney protective functions,significantly decreased the mortality,decreased kidney/body weight ratios,had some advantages in improving the kidney/body weight ratios,smaller decrease in body weight,significantly improved the kidney HE pathological scores,showed significant differences compared with the model group,significant difference,could reduce the renal hypertrophy,alleviated the increase in blood creatinine and urea nitrogen levels,stronger protective effect compared with compound B,more excellent kidney protective effect,exhibited kidney protective effects
